Measured values as given in patent US20060228301A1, “Methods and compositions for determining targeted drug sensitivity and resistance in a cancer subject” (priority 2005, published 2006).

Columns and labels:
K562r cells = details: high doses; cited from earlier work
[1] = system: cultured myeloid (K-562) cells from patients with chronic myeloid leukemia; test: ratio of [1-13C1]-D-ribose to [1,2-13C2]-D-ribose (m1/m2) in cultured CML myeloid cells exposed to Gleevec, ribose mass spectral analysis; format: cell-based, human; details: myeloid cells from two patients resistant to Gleevec, increasing concentrations of Gleevec; cut off 0.65 for resistance
Text: FIG. 5 depicts the results of studies comparing the ratio of [1-^13C1]-D-ribose to [1,2-^13C2]-D-ribose in cultured myeloid cells from patients with chronic myeloid leukemia using increasing concentrations of Gleevec (“x” axis). The set of vertical bars on the left are observed values of m1 and the set of vertical bars on the right are observed values of m2. The calculated ratios of m1/m2 are provided above the horizontal lines. In this experiment, a cut off point of 0.65 to detect resistance was used to identify Gleevec resistance. Cells from two patients resistant to Gleevec have m1/m2 ratios below 0.65, as indicated by an asterisk.
(§1) When the ratio of [1-^13C1]-D-ribose to [1,2-^13C2]-D-ribose is less than 1 (e.g., 0.5) the patient is at risk of having a reduced response to treatment with a cancer therapeutic such as imatinib. The increased risk of developing a reduced response to imatinib includes any increased risk. In embodiments of the invention, the increased risk is about a 10% decrease in the ratio described above indicating the risk of developing imatinib resistance. In other embodiments, the increased risk is indicated by about a 10%, 15%, 20%, 25%, 50%, 75%, 85%, 90%, 95%, 98%, 99%, or 99.9% decrease in the ratio of [1-^13C1]-D-ribose to [1,2-^13C2]-D-ribose. […]

[2] = system: rat neuroblastoma (C6) cells; test: ratio of [1-13C1]-D-ribose to [1,2-13C2]-D-ribose (m1/m2) in cultured cells contacted with [1,2-13C2]-D-glucose; format: cell-based; details: untreated ratio 2.35
Text: FIG. 6 depicts the results of in culture studies comparing the ratio of [1-^13C1]-D-ribose to [1,2-^13C2]-D-ribose in rat neuroblastoma (C6) cells which are sensitive to imatinib treatment. The increased ratio of m1/m2 ^13C in ribose indicates sensitivity to Gleevec, which is further increased by Hydroxyurea treatment, which is a well known chemotherapeutic agent for the treatment of various human cancers. The set of vertical bars on the left are observed values of m1 and the set of vertical bars on the right are observed values of m2. The calculated ratios of m1/m2 are provided above the horizontal lines.
as §1

LAMA84r cells = details: high doses; cited from earlier work

| SMILES | response to Gleevec treatment (K562r cells) | m1/m2 ratio [1] | ratio of [1-13C1]-D-ribose to [1,2-13C2]-D-ribose (m1/m2) ([2]; 3.0 μM Gleevec) | response to Gleevec treatment (LAMA84r cells) | ratio of [1-13C1]-D-ribose to [1,2-13C2]-D-ribose (m1/m2) ([2]; 100 μM hydroxyurea) |
| --- | --- | --- | --- | --- | --- |
| Cc1ccc(NC(=O)c2ccc(CN3CCN(C)CC3)cc2)cc1Nc1nccc(-c2cccnc2)n1 [Gleevec, imatinib] | do not respond well even to high doses | below 0.65 | 2.97 | do not respond well even to high doses | – |
| NC(=O)NO [hydroxyurea] | – | – | – | – | 3.59 |
